Assay results reported in patent US5688507A, “Methods and compositions for inhibiting thrombogenesis” (Hamilton Civic Hospitals Research Development, Inc., priority 1995, dated 1997).

Columns and labels:
fibrin I (desAA fibrin) = assay: Solid-phase binding of 125I-thrombin to fibrin-coated microtiter wells (ovalbumin-coated wells as non-specific control); conditions: increasing concentrations, 2 h at 37° C., ovalbumin-well binding subtracted (FIG. 4)
Method: To examine the ability of various agents to displace thrombin from fibrin, a solid-phase system was developed wherein fibrin was immobilized on the surface of a microtiter plate well. Radiolabeled thrombin was then bound to the fibrin-coated surface, and after washing, the ability of various agents to displace the bound thrombin was evaluated. In this model, the binding of thrombin to immobilized ovalbumin serves as an index of nonspecific binding. The details of the model are as follows: after adding 100 μl of fibrinogen or ovalbumin (each at a concentration of 1 mg/ml) to the wells of microtiter plate, the plates were incubated for 18 hours at 4° C. The wells were then washed three times with 250 μl aliquots of phosphate buffered saline, pH 7.4, containing 0.1% ovalbumin and 6 mg/ml PEG 8,000 (POP buffer). Based on preliminary studies using radiolabeled fibrinogen or ovalbumin, each well bound 1.3±0.2 μg of fibrinogen, or 1.0±0.1 μg of ovalbumin. […] The reptilase completely converted the immobilized fibrinogen to fibrin I because quantitative amounts of fibrinopeptide A (2 mol fibrinopeptide A/mol of bound fibrinogen) was recovered in the supernatant buffer. […] At the end of the incubation period, the wells were washed three times and then counted to determine the concentration of thrombin bound to the fibrin-coated (+) or ovalbumin-coated (.largecircle.) wells (FIG. 4). […]

fibrin = conditions: stated without experiment; cited from earlier work

## thrombin
Fibrin I (desAA fibrin)
  specific binding to fibrin-coated wells: binds to fibrin in a saturable manner
fibrin
  native binding affinity between fibrin and thrombin in thrombus: about 5×10^-5 M^-1
